The values below come from patent US12240892B2, “Pharmaceutical composition comprising expression or activity inhibitor of c-src for preventing or treating synucleinopathy” (AJOU UNIVERSITY INDUSTRY-ACADEMIC COOPERATION FOUNDATION, priority 2018, dated 2025).

In data set [1] the test system is SHSY5Y overexpressing A53T eGFP. Briefly: Amount of aggregated α-syn in differentiated cells overexpressing A53T eGFP, confocal microscopy. The data set is classed as cell-based. To be noted: for amount of α-syn aggregated in the cells: Src KD SHSY5Y overexpressing A53T eGFP, 50 μM retinoid acid, differentiated 5 days.
In a further data set the test system is SHSY5Y cell line. The data set is described as follows: α-syn intercellular migration, two-chamber co-culture, immunostaining and confocal microscopy. The class given is cell-based. The settings on record: 0.1 μM saracatinib, 10 μM SKI; co-culture 12 hours with SHSY5Y overexpressing α-syn; vs PBS control. As for the experimental part: The SHSY5Y cell overexpressing alpha-synuclein was seeded at 4×10^4 in a 12-well plate in an insert well using a two-chamber system, and the SHSY5Y cell line was seeded at 4×10^4 on the cover glass. The next day, the insert well was transferred to a 12-well cover glass, and during co-culture for 12 hours, the SHSY5Y cell line was treated with 0.1 μM saracatinib and 10 μM SKI (c-src kinase inhibitor I), which are c-src inhibitors, and then alpha-synuclein in SHSY5Y cell line on the cover glass was immunostained (α-syn: red, nucleus: blue) and observed using a confocal microscope to confirm that alpha-synuclein was migrated from SHSY5Y overexpressing alpha-synuclein to SHSY5Y not overexpressing alpha-synuclein.
Next, c-src knockdown SHSY5Y cell lines (KD #1 and KD #2), constructed using shRNAs of […], and dopaminergic neuronal cell line SHSY5Y overexpressing α-syn were co-cultured for 12 hours using a two-chamber system. The co-culture will be described in brief. SHSY5Y cells were seeded at a concentration of 4×10^4 cells/well on a 12-well cover glass. […]

On to “SEQ ID NO: 1: shRNA against c-src: CCGGGCUCGGCUCAUUGAAGACAAUCUCGAGAUUGUCUUCAAUGAGCCGAGCUUUUUG”, for which, in data set [1], the “amount of α-syn aggregated in the cells” value is “decreased”. For the molecule “SEQ ID NO: 2: shRNA against c-src: CCGGGACAGACCUGUCCUUCAAGAACUCGAGUUCUUGAAGGACAGGUCUGUCUUUUUG (listed as RNA, chemistry not fully specified)”, the “amount of α-syn aggregated in the cells” value in data set [1] is reported as “decreased”.

Turning to `COc1cc2ncnc(Nc3ccc(Oc4ccccc4)cc3)c2cc1OC` [SKI], the “migration of α-syn” value in the data set with SHSY5Y cell line is “reduced”. In addition, the “amount of aggregated α-syn” value in data set [1] (10 μM SKI, 0.5 μM saracatinib, differentiated with 50 μM RA) is “decreased”.
